The test system of series [1] is Typhlodromus pyri. Put plainly: LR50; higher = less toxic. The settings on record: duration: 7 days, mortality.
In series [2] the test system is Tagia sp.
In series [3] the test system is Anas platyrhynchos.
Series [4] relates to Pimephales promelas.
The test system of series [5] is Daphnia magna. To be noted: chronic/long-term; duration: 21 days; reproduction.
Series [6] deals with Apis mellifera. To be noted: acute; duration: 48 hours; oral; unspecified; mortality.
Series [7] has as its system Rattus norvegicus.
Series [8] relates to Colinus virginianus. To be noted: acute, oral, mortality.
Series [9] concerns Bibionidae. To be noted: chronic/long-term; duration: 28 days; other.

Converted amounts (≈) assume the structure as drawn. Where only a bound is given, the exact number is not on record here.

By LOAEL is commonly meant the lowest dose or exposure tested at which an adverse effect was seen. Usually NOAEL stands for the highest tested level that showed no adverse finding. As for `CC(C)CC(C)c1sccc1NC(=O)c1cn(C)nc1C(F)(F)F` (stereo unspecified) [Penthiopyrad], the LR50 in series [1] (acute) was found to be 238 g/ha; in series [1] (chronic/long-term) it was 124 g/ha. For the same compound, the LC50 is greater than 1000 mg/kg in series [2] (acute, duration: 14 days, mortality); greater than 5790 mg/kg-day in series [3] (short-term, oral, feed, no effects); 0.29 µg/mL (≈ 0.807 µM) in series [4] (acute, duration: 96 hours, mortality). Further, the NOEC in [2] (chronic/long-term, duration: 56 days, reproduction) was no less than 48 mg/kg. Further, the LOAEL in series [3] (reproductive, reproduction) was found to be 719 mg/kg-day. Besides, the NOAEL in [3] (reproductive, reproduction) turned out to be 207 mg/kg-day; in series [7] (chronic, body weight), 54 mg/kg-day. Further, the NOAEC came out at 51 µg/L in [4] (chronic/long-term, duration: 33 days, growth); 471 µg/L in series [5]; 50 mg/kg in series [9]. Moreover, the LD50 is greater than 500 µg/piece in [6]; greater than 2000 mg/kg in [7] (acute, oral, mortality); greater than 1910 mg/kg-day in series [8] (diet); greater than 2250 mg/kg-day in series [8].

(Values after EPA's ToxValDB 9.5 (doi:10.2903/j.efsa.2013.3111).)
